Data published in patent US8828908B2, “Herbicidally active bicyclic 1,3-dione compounds” (Syngenta Limited, priority 2007, dated 2014).

Columns and labels:
Format in all cases: in vivo
Lolium perenne (LOLPE) [1] = assay: Example B pre-emergence herbicidal greenhouse test; conditions: 480 h, evaluated after 20 days, 100=total damage to plant, 0=no damage
Protocol: (§1) Seeds of a variety of test species were sown in standard soil in pots. After cultivation for one day (pre-emergence) or after 10 days cultivation (post-emergence) under controlled conditions in a glasshouse, the plants were sprayed with an aqueous spray solution derived from the formulation of the technical active ingredient in 0.6 ml acetone and 45 ml formulation solution containing 10.6% Emulsogen EL (Registry number 61791-12-6), 42.2% N-methylpyrrolidone, 42.2% dipropylene glycol monomethyl ether (Registry number 34590-94-8) and 0.2% X-77 (Registry number 11097-66-8). The test plants were then grown in a greenhouse under optimum conditions until, 15 days later for post-emergence and 20 days for pre-emergence, the test was evaluated (100=total damage to plant; 0=no damage to plant).
(§2) Alopecurus myosuroides (ALOMY), Avena fatua (AVEFA), Lolium perenne (LOLPE), Setaria faberi (SETFA), Digitaria sanguinalis (DIGSA), Echinochloa crus-galli (ECHCG)

[2] = test system: Digitaria sanguinalis (DIGSA); assay: Example B pre-emergence herbicidal greenhouse test; conditions: 480 h, evaluated after 20 days, 100=total damage to plant, 0=no damage
Protocol: as §1, §2

Avena fatua (AVEFA) [3] = assay: Example B pre-emergence herbicidal greenhouse test; conditions: 480 h, evaluated after 20 days, 100=total damage to plant, 0=no damage
Protocol: as §1, §2

[4] = test system: Echinochloa crus-galli (ECHCG); assay: Example B pre-emergence herbicidal greenhouse test; conditions: 480 h, evaluated after 20 days, 100=total damage to plant, 0=no damage
Protocol: as §1, §2

[5] = test system: Alopecurus myosuroides (ALOMY); assay: Example B pre-emergence herbicidal greenhouse test; conditions: 480 h, evaluated after 20 days, 100=total damage to plant, 0=no damage
Protocol: as §1, §2

Setaria faberi (SETFA) [6] = assay: Example B pre-emergence herbicidal greenhouse test; conditions: 480 h, evaluated after 20 days, 100=total damage to plant, 0=no damage
Protocol: as §1, §2

Lolium perenne (LOLPE) [7] = assay: Example B post-emergence herbicidal greenhouse test; conditions: 360 h, evaluated after 15 days, 100=total damage to plant, 0=no damage
Protocol: as §1, §2

[8] = test system: Digitaria sanguinalis (DIGSA); assay: as above; conditions: 360 h, evaluated after 15 days, 100=total damage to plant, 0=no damage
Protocol: as §1, §2

Avena fatua (AVEFA) [9] = assay: as above; conditions: 360 h, evaluated after 15 days, 100=total damage to plant, 0=no damage
Protocol: as §1, §2

[10] = test system: Echinochloa crus-galli (ECHCG); assay: as above; conditions: 360 h, evaluated after 15 days, 100=total damage to plant, 0=no damage
Protocol: as §1, §2

[11] = test system: Alopecurus myosuroides (ALOMY); assay: as above; conditions: 360 h, evaluated after 15 days, 100=total damage to plant, 0=no damage
Protocol: as §1, §2

Setaria faberi (SETFA) [12] = assay: as above; conditions: 360 h, evaluated after 15 days, 100=total damage to plant, 0=no damage
Protocol: as §1, §2

[13] = test system: Amaranthus retroflexus (AMARE); assay: Example A pre-emergence herbicidal glasshouse test; conditions: 312 h, Rate 250 g/ha, evaluated after 13 days, 100=total damage to plant, 0=no damage to plant
Protocol: (§3) Seeds of a variety of test species were sown in standard soil in pots. After cultivation for one day (pre-emergence) or after 8 days cultivation (post-emergence) under controlled conditions in a glasshouse (at 24/16° C., day/night; 14 hours light; 65% humidity), the plants were sprayed with an aqueous spray solution derived from the formulation of the technical active ingredient in acetone/water (50:50) solution containing 0.5% Tween 20 (polyoxyethelyene sorbitan monolaurate, CAS RN 9005-64-5). The test plants were then grown in a glasshouse under controlled conditions in a glasshouse (at 24/16° C., day/night; 14 hours light; 65% humidity) and watered twice daily. After 13 days for pre and post-emergence, the test was evaluated (100=total damage to plant; 0=no damage to plant).
(§4) Alopecurus myosuroides (ALOMY), Avena fatua (AVEFA), Setaria faberi (SETFA), Echinochloa crus-galli (ECHCG), Solanum nigrum (SOLNI) and Amaranthus retroflexus (AMARE)

Avena fatua (AVEFA) [14] = assay: Example A pre-emergence herbicidal glasshouse test; conditions: 312 h, Rate 250 g/ha, evaluated after 13 days, 100=total damage to plant, 0=no damage to plant
Protocol: as §3, §4

[15] = test system: Echinochloa crus-galli (ECHCG); assay: Example A pre-emergence herbicidal glasshouse test; conditions: 312 h, Rate 250 g/ha, evaluated after 13 days, 100=total damage to plant, 0=no damage to plant
Protocol: as §3, §4

[16] = test system: Alopecurus myosuroides (ALOMY); assay: Example A pre-emergence herbicidal glasshouse test; conditions: 312 h, Rate 250 g/ha, evaluated after 13 days, 100=total damage to plant, 0=no damage to plant
Protocol: as §3, §4

Setaria faberi (SETFA) [17] = assay: Example A pre-emergence herbicidal glasshouse test; conditions: 312 h, Rate 250 g/ha, evaluated after 13 days, 100=total damage to plant, 0=no damage to plant
Protocol: as §3, §4

[18] = test system: Amaranthus retroflexus (AMARE); assay: Example A post-emergence herbicidal glasshouse test; conditions: 312 h, evaluated after 13 days, 100=total damage to plant, 0=no damage
Protocol: as §3, §4

Avena fatua (AVEFA) [19] = assay: as above; conditions: 312 h, evaluated after 13 days, 100=total damage to plant, 0=no damage
Protocol: as §3, §4

[20] = test system: Echinochloa crus-galli (ECHCG); assay: as above; conditions: 312 h, evaluated after 13 days, 100=total damage to plant, 0=no damage
Protocol: as §3, §4

[21] = test system: Alopecurus myosuroides (ALOMY); assay: as above; conditions: 312 h, evaluated after 13 days, 100=total damage to plant, 0=no damage
Protocol: as §3, §4

Setaria faberi (SETFA) [22] = assay: as above; conditions: 312 h, evaluated after 13 days, 100=total damage to plant, 0=no damage
Protocol: as §3, §4

Row | SMILES | pest or weed control at 250 g/ha (Lolium perenne (LOLPE) [1]) [%] | pest or weed control at 250 g/ha [2] [%] | pest or weed control at 250 g/ha (Avena fatua (AVEFA) [3]) [%] | pest or weed control at 250 g/ha [4] [%] | pest or weed control at 250 g/ha [5] [%] | pest or weed control at 250 g/ha (Setaria faberi (SETFA) [6]) [%] | pest or weed control at 125 g/ha (Lolium perenne (LOLPE) [7]) [%] | pest or weed control at 125 g/ha [8] [%] | pest or weed control at 125 g/ha [10] [%] | pest or weed control at 125 g/ha (Setaria faberi (SETFA) [12]) [%] | pest or weed control at 250 g/ha [13] [%] | pest or weed control at 250 g/ha (Avena fatua (AVEFA) [14]) [%] | pest or weed control at 250 g/ha [15] [%] | pest or weed control at 250 g/ha [16] [%] | pest or weed control at 250 g/ha (Setaria faberi (SETFA) [17]) [%] | pest or weed control at 250 g/ha [18] [%] | pest or weed control at 250 g/ha (Avena fatua (AVEFA) [19]) [%] | pest or weed control at 250 g/ha [20] [%] | pest or weed control at 250 g/ha [21] [%] | pest or weed control at 250 g/ha (Setaria faberi (SETFA) [22]) [%] | also measured
1 | CCc1ccc(-c2ccccc2)cc1C1=C(O)[C@H]2CC[C@H](C2)C1=O (single isomer, unassigned) [Compound T2] | 10 | 0 | 20 | 100 | 0 | 0 | 0 | 0 | 60 | 30 |  |  |  |  |  |  |  |  |  |  | pest or weed control at 125 g/ha (Avena fatua (AVEFA) [9]): 0%; pest or weed control at 125 g/ha [11]: 10%
2 | Cc1ccc(-c2cccc(Cl)c2)cc1C1=C(O)[C@H]2CC[C@H](C2)C1=O (single isomer, unassigned) [Compound T7] | 0 | 20 | 10 | 0 | 0 | 10 | 0 | 0 | 0 | 0 |  |  |  |  |  |  |  |  |  |  | pest or weed control at 125 g/ha (Avena fatua (AVEFA) [9]): 0%; pest or weed control at 125 g/ha [11]: 0%
3 | Cc1ccc(-c2ccc(Cl)c(C(F)(F)F)c2)cc1C1=C(O)[C@H]2CC[C@H](C2)C1=O (single isomer, unassigned) [Compound T8] | 50 | 70 | 30 | 100 | 50 | 70 | 0 | 30 | 0 | 30 |  |  |  |  |  |  |  |  |  |  | pest or weed control at 125 g/ha (Avena fatua (AVEFA) [9]): 0%; pest or weed control at 125 g/ha [11]: 10%
4 | Cc1ccc(-c2ccc(Cl)c(Cl)c2)cc1C1=C(O)[C@H]2CC[C@H](C2)C1=O (single isomer, unassigned) [Compound T10] | 20 | 30 | 0 | 50 | 50 | 80 | 20 | 0 | 0 | 0 |  |  |  |  |  |  |  |  |  |  | pest or weed control at 125 g/ha (Avena fatua (AVEFA) [9]): 10%; pest or weed control at 125 g/ha [11]: 10%
5 | COc1cc(Cl)ccc1-c1ccc(C)c(C2=C(O)[C@H]3CC[C@H](C3)C2=O)c1 (single isomer, unassigned) [Compound T11] | 10 | 0 | 0 | 10 | 10 | 10 | 0 | 0 | 20 | 10 |  |  |  |  |  |  |  |  |  |  | pest or weed control at 125 g/ha (Avena fatua (AVEFA) [9]): 20%; pest or weed control at 125 g/ha [11]: 20%
6 | Cc1cc(-c2ccc(C)c(C3=C(O)[C@H]4CC[C@H](C4)C3=O)c2)ccc1Cl (single isomer, unassigned) [Compound T24] | 10 | 70 | 0 | 80 | 40 | 20 |  | 0 | 30 | 0 |  |  |  |  |  |  |  |  |  |  | 
7 | CCc1ccc(-c2ccc(Cl)nc2Cl)cc1C1=C(O)[C@H]2CC[C@H](C2)C1=O (single isomer, unassigned) [Compound T80] |  |  |  |  |  |  |  |  |  |  | 0 | 50 | 90 | 30 | 100 | 0 | 70 | 90 | 70 | 100 | 
8 | Cc1ccc(-c2ccc(Cl)nc2)cc1C1=C(O)[C@H]2CC[C@H](C2)C1=O (single isomer, unassigned) [Compound T81] |  |  |  |  |  |  |  |  |  |  | 20 | 40 | 50 | 30 | 70 | 0 | 70 | 80 | 50 | 90 | 
9 | CCOc1ccc(-c2ccc(Cl)cc2)cc1C1=C(O)[C@H]2CC[C@H](C2)C1=O [Compound T52] |  |  |  |  |  |  |  |  |  |  | 0 | 0 | 0 | 0 | 0 | 0 | 0 | 80 | 40 | 90 | 
10 | COc1ccc(-c2ccc(Cl)cc2Cl)cc1C1=C(O)[C@H]2CC[C@H](C2)C1=O [Compound T53] |  |  |  |  |  |  |  |  |  |  | 0 | 0 | 0 | 0 | 0 | 0 | 0 | 30 | 0 | 80 | 
11 | CCc1ccc(-c2ccc(Cl)cc2Cl)cc1C1=C(O)[C@H]2C=C[C@H](CC2)C1=O [Compound T56] |  |  |  |  |  |  |  |  |  |  | 60 | 0 | 30 | 10 | 50 | 10 | 70 | 100 | 60 | 100 | 
12 | CCc1ccc(-c2ccc(Cl)cc2F)cc1C1=C(O)[C@H]2C=C[C@H](CC2)C1=O [Compound T57, 3-(4′-chloro-4-ethyl-2′-fluorobiphen-3-yl)bicyclo[3.2.2]non-6-ene-2,4-dione] |  |  |  |  |  |  |  |  |  |  | 0 | 0 | 50 | 0 | 90 | 0 | 40 | 100 | 30 | 100 | 
13 | CCc1ccc(-c2ccc(Cl)cc2)cc1C1=C(O)C2CC(C1=O)C2(C)C (stereo not shown) [Compound T69, 3-(4′-chloro-4-ethylbiphen-3-yl)-6,6-dimethylbicyclo[3.1.1]heptane-2,4-dione] |  |  |  |  |  |  |  |  |  |  | 0 | 0 | 100 | 20 | 90 | 0 | 80 | 100 | 70 | 100 | 
